Reference: patent publication US9000153B2, “Imidazo[4,5-c]quinolines as DNA-PK inhibitors” (Merck Patent GmbH, priority 2010, dated 2015)

Molecular target: DNA-PK (Homo sapiens (Human), UniProt P78527)
Assay: DNA-PK/biochemical assay (FlashPlate kinase assay)
Settings: 5 μM ATP, 90 min, room temperature
Method: The kinase assay was carried out in streptavidin-coated […] microtitre FlashPlates®. To this end, 1.5 μg of the DNA-PK/protein complex and 100 ng of biotinylated substrate, such as, for example, PESQEAFADLWKK biotin-NH2 (“biotin-DNA-PK peptide”), in a total volume of 36.5 μl (34.25 mM HEPES/KOH, 7.85 mM Tris-HCl, 68.5 mM KCl, 5 μM ATP, 6.85 mM MgCl2, 0.5 mM EDTA, 0.14 mM EGTA, 0.69 mM DTT, pH 7.4), were incubated at room temperature for 90 min with 500 ng of DNA from calf thymus, 0.1 μCi of 33P-ATP and 1.8% of DMSO per well with or without the test compound. The reaction was stopped using 50 μl/well of 200 mM EDTA. After incubation for a further 30 min at room temperature, the liquid was removed. Each well was washed three times with 100 μl of 0.9% sodium chloride solution. A non-specific reaction (blank value) was determined using 10 μM of a proprietary kinase inhibitor. The radioactivity measurement was carried out by means of a TopCount. IC50 values were calculated in RS1 (Kashishian et al. (2003) Molecular Cancer Therapeutics 1257).

| Structure (SMILES) | IC50 |
| --- | --- |
| COCCNC(=O)C(Oc1cc2c(cc1OC)ncc1c2n(-c2ccc(C#N)cc2F)c(=O)n1C)c1ccc(F)cc1 (stereo not drawn) [Compound 16, 2-[1-(4-Cyano-2-fluorophenyl)-7-methoxy-3-methyl-2-oxo-2,3-dihydro-1H-imidazo[4,5-c]-quinolin-8-yloxy]-2-(4-fluoro-phenyl)-N-(2-methoxyethyl)-acetamide] | 0.1 to 0.5 µM |
| COc1cc2ncc3c(c2cc1CCc1ccsc1)n(-c1ccc(C#N)cc1F)c(=O)n3C [Compound 42, 3-Fluoro-4-[7-methoxy-3-methyl-2-oxo-8-(2-thiophen-3-ylethyl)-2,3-dihydroimidazo[4,5-c]-quinolin-1-yl]benzonitrile] | 0.1 to 0.5 µM |
| COc1cc2ncc3c(c2cc1-c1ccnn1C)n(-c1ccc(C#N)cc1F)c(=O)n3C [Compound 38, 3-Fluoro-4-[7-methoxy-3-methyl-8-(2-methyl-2H-pyrazol-3-yl)-2-oxo-2,3-dihydroimidazo[4,5-c]-quinolin-1-yl)benzonitrile] | 0.1 to 0.5 µM |
| COc1cc2ncc3c(c2cc1OCc1ccccc1Br)n(-c1ccc(C#N)cc1F)c(=O)n3C [Compound 21, 4-[8-(2-Bromobenzyloxy)-7-methoxy-3-methyl-2-oxo-2,3-dihydroimidazo[4,5-c]quinolin-1-yl]-3-fluorobenzonitrile] | < 0.1 µM |
| COc1cc2ncc3[nH]c(=O)n(-c4c(F)cc(C#N)cc4F)c3c2cc1OCc1ccccc1 [Compound 10, 4-(8-Benzyloxy-7-methoxy-2-oxo-2,3-dihydroimidazo-[4,5-c]quinolin-1-yl)-3,5-difluorobenzonitrile] | < 0.1 µM |
| COc1cc2ncc3c(c2cc1OCc1ccc(F)cc1Cl)n(-c1ccc(C#N)cc1F)c(=O)n3C [Compound 23, 4-[8-(2-Chloro-4-fluorobenzyloxy)-7-methoxy-3-methyl-2-oxo-2,3-dihydro-imidazo[4,5-c]quinolin-1-yl]-3-fluorobenzonitrile] | < 0.1 µM |
| COc1cc2ncc3c(c2cc1OC(C(N)=O)c1ccccc1)n(-c1ccc(C#N)cc1F)c(=O)n3C (stereo not drawn) [Compound 18, 2-[1-(4-Cyano-2-fluorophenyl)-7-methoxy-3-methyl-2-oxo-2,3-dihydro-1H-imidazo[4,5-c]-quinolin-8-yloxy]-2-phenyl-acetamide] | < 0.1 µM |
| COc1cc2ncc3c(c2cc1-c1cc(C(F)(F)F)nn1C)n(-c1ccc(C#N)cc1F)c(=O)n3C [Compound 40, 3-Fluoro-4-[7-methoxy-3-methyl-8-(2-methyl-5-trifluoromethyl-2H-pyrazol-3-yl)-2-oxo-2,3-dihydro-imidazo[4,5-c]quinolin-1-yl]-benzonitrile] | 0.1 to 0.5 µM |
| COc1cc2ncc3c(c2cc1OCc1ccc(F)cc1)n(-c1ccc(C#N)cc1F)c(=O)n3C [Compound 17, 3-Fluoro-4-[8-(4-fluoro-benzyloxy)-7-methoxy-3-methyl-2-oxo-2,3-dihydro-imidazo[4,5-c]quinolin-1-yl]-benzonitrile] | < 0.1 µM |
| COc1ccc(-c2cc3c(cc2OC)ncc2c3n(-c3ccc(C#N)cc3F)c(=O)n2C)cn1 [Compound 34, 3-Fluoro-4-[7-methoxy-8-(6-methoxypyridin-3-yl)-3-methyl-2-oxo-2,3-dihydroimidazo[4,5-c]-quinolin-1-yl)benzonitrile] | < 0.1 µM |
| COc1cc2ncc3c(c2cc1OCc1ccccc1)n(-c1ccc(C#N)cc1)c(=O)n3C [Compound 7, 4-(8-Benzyloxy-7-methoxy-3-methyl-2-oxo-2,3-dihydro-imidazo[4,5-c]quinolin-1-yl)-benzonitrile] | < 0.1 µM |
| COc1cc2ncc3c(c2cc1OCc1cccs1)n(-c1c(F)cc(C#N)cc1F)c(=O)n3C [Compound 28, 3,5-Difluoro-4-(7-methoxy-3-methyl-2-oxo-8-(thiophen-2-ylmethoxy)-2,3-dihydroimidazo-[4,5-c]quinolin-1-yl)benzonitrile] | < 0.1 µM |
| COc1cc2ncc3c(c2cc1-c1cnn(C)c1)n(-c1ccc(C#N)cc1F)c(=O)n3C [Compound 36, 3-Fluoro-4-[7-methoxy-3-methyl-8-(1-methyl-1H-pyrazol-4-yl)-2-oxo-2,3-dihydroimidazo[4,5-c]-quinolin-1-yl]benzonitrile] | < 0.1 µM |
| COc1cc2ncc3c(c2cc1/C=C/c1ccccc1)n(-c1ccc(C#N)cc1F)c(=O)n3C [Compound 43, 3-Fluoro-4-[7-methoxy-3-methyl-2-oxo-8-((E)-styryl)-2,3-dihydroimidazo[4,5-c]quinolin-1-yl]benzonitrile] | 0.1 to 0.5 µM |
| COC(=O)n1c(=O)n(-c2ccc(C#N)cc2F)c2c3cc(OCc4ccccc4)c(OC)cc3ncc21 [Compound 12, Methyl 8-benzyloxy-1-(4-cyano-2-fluorophenyl)-7-methoxy-2-oxo-1,2-dihydroimidazo[4,5-c]-quinoline-3-carboxylate] | < 0.1 µM |

Other lines, results leading:

| IC50 | Structure (SMILES) |
| --- | --- |
| < 0.1 µM | COc1cc2ncc3c(c2cc1O)n(-c1ccc(C#N)cc1)c(=O)n3C [Compound 3, 4-(8-Hydroxy-7-methoxy-3-methyl-2-oxo-2,3-dihydro-imidazo[4,5-c]quinolin-1-yl)-benzonitrile] |
| < 0.1 µM | COc1cc2ncc3c(c2cc1-c1cccnc1)n(-c1ccc(C#N)cc1F)c(=O)n3C [Compound 33, 3-Fluoro-4-(7-methoxy-3-methyl-2-oxo-8-pyridin-3-yl-2,3-dihydro-imidazo[4,5-c]quinolin-1-yl)-benzonitrile] |
| < 0.1 µM | COc1cc2ncc3c(c2cc1OCc1ccccc1)n(-c1c(F)cc(C#N)cc1F)c(=O)n3C [Compound 11, 4-(8-Benzyloxy-7-methoxy-3-methyl-2-oxo-2,3-dihydro-imidazo[4,5-c]quinolin-1-yl)-3,5-difluorobenzonitrile] |
| < 0.1 µM | COc1cc2ncc3[nH]c(=O)n(-c4ccc(C#N)cc4F)c3c2cc1OCc1ccccc1 [Compound 8, 4-(8-Benzyloxy-7-methoxy-2-oxo-2,3-dihydroimidazo-[4,5-c]quinolin-1-yl)-3-fluorobenzonitrile] |
| < 0.1 µM | COc1cc2ncc3c(c2cc1OC(C(N)=O)c1ccc(F)cc1)n(-c1c(F)cc(C#N)cc1F)c(=O)n3C (stereo not drawn) [Compound 25, 2-[1-(4-Cyano-2,6-difluoro-phenyl)-7-methoxy-3-methyl-2-oxo-2,3-dihydro-1H-imidazo-[4,5-c]quinolin-8-yloxy]-2-(4-fluorophenyl)acetamide] |
| < 0.1 µM | COc1cc2ncc3[nH]c(=O)n(-c4ccc(C#N)cc4)c3c2cc1OC [Compound 1, 4-(7,8-Dimethoxy-2-oxo-2,3-dihydroimidazo[4,5-c]quinolin-1-yl)benzonitrile] |
| < 0.1 µM | COc1cc2ncc3c(c2cc1OCc1ccsc1)n(-c1ccc(C#N)cc1F)c(=O)n3C [Compound 13, 3-Fluoro-4-(7-methoxy-3-methyl-2-oxo-8-(thiophen-3-ylmethoxy)-2,3-dihydroimidazo[4,5-c]-quinolin-1-yl)benzonitrile] |
| < 0.1 µM | COc1cc2ncc3c(c2cc1OC(C(N)=O)c1ccc(F)cc1)n(-c1ccc(C#N)cc1F)c(=O)n3C (stereo not drawn) [Compound 15, 2-[1-(4-Cyano-2-fluorophenyl)-7-methoxy-3-methyl-2-oxo-2,3-dihydro-1H-imidazo[4,5-c]-quinolin-8-yloxy]-2-(4-fluoro-phenyl)acetamide] |
| < 0.1 µM | COc1cc2ncc3c(c2cc1OCc1ccccc1)n(-c1ccc(C#N)cc1F)c(=O)n3C [Compound 9, 4-(8-Benzyloxy-7-methoxy-3-methyl-2-oxo-2,3-dihydro-imidazo[4,5-c]quinolin-1-yl)-3-fluorobenzonitrile] |
